According to article PMC7311426, “An amphipathic peptide with antibiotic activity against multidrug-resistant Gram-negative bacteria” (Nature Communications, 2020):
Converted amounts (≈) assume the structure as drawn. Read-outs that look alike come from different tables or passages of the source.

Tests used:
Assay in all cases: microbe, parasite or virus in culture
A. baumannii = settings: Acinetobacter baumannii, mode of 6 replicates
Procedure, shortened: (§1)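 MICs were scored by eye after 18-20 h static incubation at 37 °C, with bacteria at 5 × 10^5 CFU mL^−1 in MHB. Peptides were serially diluted 2-fold over 12 points, top 128 or 64 μg mL^−1. CAMHB (CLSI) and 1% agarose-MHB variants were also run, at least six replicates.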

E. coli = settings: Escherichia coli
Procedure, shortened: as §1

K. pneumoniae = settings: Klebsiella pneumoniae, mode of 6 replicates
Procedure, shortened: as §1

P. aeruginosa = settings: Pseudomonas aeruginosa, mode of 6 replicates
Procedure, shortened: as §1

S. aureus = settings: Staphylococcus aureus, ATCC25923 / MSSA, read-out: BMD MIC
Procedure, shortened: as §1

S. enterica Typhi = settings: Salmonella enterica, ATCC14028 / TYPHI, read-out: BMD MIC
Procedure, shortened: as §1

[1] = tested on: A. baumannii clinical isolates
Procedure, shortened: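 MIC90 from CLSI broth microdilution (M07-A9) in two clinical-isolate panels. US panel (331 isolates, 2010-2012): AA139 diluted in 0.01% acetic acid/0.1% BSA. Worldwide panel (445 isolates, 2011-2013, four regions): CAMHB, with 0.002% Tween 80 added for AA139 and polymyxin B.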

[2] = Worldwide isolates 2011-2013, A. baumannii n = 108

`CNC(C)C1CCC(N)C(OC2C(N)CC(N)C(OC3OCC(C)(O)C(NC)C3O)C2O)O1` (stereo not shown) [Gentamicin, gentamicin, reference compound] gave an MIC (A. baumannii; ATCC19636, read-out: BMD MIC, A. baumannii ATCC 19636 type strain, CAMHB) of 16 µg/mL (≈ 33.5 µM), an MIC (A. baumannii; ATCC19636, read-out: BMD MIC, A. baumannii ATCC 19636 type strain, MHB) of 32 µg/mL (≈ 67 µM) and an MIC (A. baumannii; read-out: BMD MIC, A. baumannii Greece CI, XDR, PmxR, MHB) greater than 32 µg/mL. It also gave an MIC (E. coli; ATCC25922, read-out: BMD MIC, E. coli ATCC 25922 FDA control strain, CAMHB, mode of 6 replicates) of no more than 0.25 µg/mL, an MIC (E. coli; ATCC25922, read-out: BMD MIC, E. coli ATCC 25922 FDA control strain, MHB, mode of 6 independent biological replicates) of 1 µg/mL (≈ 2.09 µM) and an MIC (E. coli; ATCC700926|MG1655, read-out: BMD MIC, E. coli ATCC 700926 K12 (MG1655), CAMHB, mode of 6 replicates) of 0.5 µg/mL (≈ 1.05 µM). It also gave an MIC (E. coli; ATCC700928, read-out: BMD MIC, E. coli ATCC 700928 CFT073 UPEC, CAMHB, mode of 6 replicates) of 0.5 µg/mL (≈ 1.05 µM), an MIC (E. coli; read-out: BMD MIC, E. coli CI 12-6-83 Hong Kong, mcr-1 pos, ESBL, CAMHB, mode of 6 replicates) of 0.5 µg/mL (≈ 1.05 µM) and an MIC (K. pneumoniae; ATCC13883, read-out: BMD MIC, K. pneumoniae ATCC 13883 type strain (polymyxin/colistin heteroresistant), MHB) of 0.5 µg/mL (≈ 1.05 µM). It also gave an MIC (K. pneumoniae; ATCC700603, read-out: BMD MIC, K. pneumoniae ATCC 700603 (K6), MDR, OXA-2/SHV-18, CAMHB) of 4 µg/mL (≈ 8.38 µM), an MIC (K. pneumoniae; ATCC700603, read-out: BMD MIC, K. pneumoniae ATCC 700603 (K6), MDR, OXA-2/SHV-18, MHB) of 4 µg/mL (≈ 8.38 µM) and an MIC (K. pneumoniae; BAA2146, read-out: BMD MIC, K. pneumoniae BAA-2146, MDR, ESBL, NDM-1 pos, MHB) greater than 32 µg/mL. For the same compound, the MIC (P. aeruginosa; ATCC27853, read-out: BMD MIC, P. aeruginosa ATCC 27853 control strain, CAMHB) was 1 µg/mL (≈ 2.09 µM), the MIC (P. aeruginosa; ATCC27853, read-out: BMD MIC, P. aeruginosa ATCC 27853 control strain, MHB) was 1 µg/mL (≈ 2.09 µM) and the MIC (P. aeruginosa; read-out: BMD MIC, P. aeruginosa FADDI-070, MDR, PmxR, MHB/CAMHB) was 32 µg/mL (≈ 67 µM). The MIC (S. aureus) was 4 µg/mL (≈ 8.38 µM), the MIC (S. enterica Typhi) was 1 µg/mL (≈ 2.09 µM) and the MIC90 ([1]; Acinetobacter baumannii) was greater than 32 µg/mL. The MIC90 ([1]; US isolates 2010–2012, A. baumannii MDR, n = 19) was greater than 32 µg/mL, the MIC90 ([1]; US isolates 2010–2012, A. baumannii XDR, n = 31) was greater than 32 µg/mL and the MIC50 [1, 2] was greater than 32 µg/mL. For the same compound, the MIC90 [1, 2] was greater than 32 µg/mL.
